Reference: US8946216B2, “Indazole derivatives useful as ERK inhibitors” (Merck Sharp & Dohme Corp., priority 2010, dated 2015)

Columns and labels:
[1] = molecular target: fully phosphorylated, active Mouse ERK2 protein (Mus musculus, UniProt P63085); assay: Active ERK2 (aERK) assay, IMAP format; assay type: biochemical; conditions: 30 min preincubation; 1 μM substrate peptide, 30 μM ATP; fluorescence polarization; read-out: aERK2 IC50
Method: Active ERK2 (aERK) Assay:
Activated ERK2 activity was also determined in the IMAP assay format using the procedure outlined above. 1 μl of 25× compound was added to 14 μl of kinase buffer containing 0.25 ng fully phosphorylated, active Mouse ERK2 protein. Following a 30 minute incubation, the reactions were initiated by addition of 10 μl of kinase buffer containing 1 μM ERK2 IMAP substrate peptide (0.9 μM unlabeled IPTTPITTTYFFFK--CONH2 and 100 nM IPTTPITTTYFFFK(5-carboxyfluorescein)-CONH2) and 30 μM ATP. Reactions proceeded for 30 minutes before termination by addition of 60 μl IMAP detection beads in binding buffer. Plates were read as above after 30 minute binding equilibration. Active compounds were reconfirmed in an independent assay.

[2] = molecular target: ERK protein (Homo sapiens, UniProt P28482); assay: TdF (Temperature Dependence Fluorescence, thermal shift) assay for ERK; assay type: binding; conditions: read-out: TdF Kd; 3 μM ERK protein, 15, 50 or 100 μM compound, Sypro Orange; Kd calculated from ΔTm; uncertainty estimated ±50%
Sequence of ERK protein (P28482 2-360): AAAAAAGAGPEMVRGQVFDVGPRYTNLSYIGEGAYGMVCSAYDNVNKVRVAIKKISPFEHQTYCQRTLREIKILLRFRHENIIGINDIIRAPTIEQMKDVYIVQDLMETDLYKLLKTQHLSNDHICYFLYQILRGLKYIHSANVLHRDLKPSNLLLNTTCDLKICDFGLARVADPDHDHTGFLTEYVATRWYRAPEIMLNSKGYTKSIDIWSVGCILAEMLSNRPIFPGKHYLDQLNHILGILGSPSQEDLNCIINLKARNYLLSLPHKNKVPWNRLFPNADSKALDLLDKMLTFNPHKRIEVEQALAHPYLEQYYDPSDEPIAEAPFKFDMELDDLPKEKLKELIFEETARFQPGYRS
Text: Assays: TdF Assay for ERK
The SAR (Structure Activity Relationship) for ERK ligands covered by this invention was interrogated using the TdF (Temperature Dependence Fluorescence) assay or best known as thermal shift assay. The TdF assay was mainly conducted in the 96-well based CHROMO-4 real time fluorescence plate reader (BioRad). The Sypro Orange (Sigma-Aldrich), environmentally sensitive fluorescence dye, was used to monitor the protein folding-unfolding transition. Protein-ligand binding was gauged by the change (or shift) in the unfolding transition temperature (ΔTm) acquired at protein alone with respect to protein in the presence of ligand of interest.
Compound of interest was first prepared in DMSO stock (typical concentration: 10 mM). Sample of 20 μL was then added into the 96-well PCR plate, where it consisted of 3 μM. […] Final percentage of DMSO resided in the sample was 2%. The sample plate was heated from 30° C. to 90° C. with thermal ramping rate of 1 ° C./min. The fluorescence signals were acquired with excitation and emission wavelengths centered at 490 and 560 nm respectively. The instrument thermal stability was ±0.2° C. The melting temperatures (Tm) for ERK protein under aforementioned conditions occurred at 61.0±0.2° C. and 64.8±0.2° C. respectively.
Theoretical Basis for TdF-based Ligand Binding Affinity Constant
The derivation of TdF-based ligand binding affinity constant (Kd) followed closely those previously formulated by Brandts and Lin [2]. In brief, the binding constant of the ligand at the Tm is expressed as below: […]
where T0 is the midpoint of unfolding for unliganded protein and Tm is the midpoint of unfolding in presence of ligand. [LTm] is free ligand at Tm. The ΔHu and ΔCpu are the enthalpy of unfolding and heat capacity change of unfolding for the protein respectively. Following algorithm derived by Winsor and coworker, the T0, ΔHu and ΔCpu can be determined separately from nonlinear regression fitting the protein alone melting curve:
Where F(T) is the observed fluorescence intensity at any temperature T, Yn and Yu are the predicted fluorescence intensities for fully folded and unfolded protein, respectively; mn and mu are slope correction for changes in Yn and Yu with respect to changes in temperature (analogously replace T0 with Tm in the above equation for liganded protein to yield Tm).
where ΔHL(T) is the van't Hoff enthalpy of ligand binding at temperature T and ΔCpL is the heat capacity upon ligand binding. For simplicity, the ΔCpL and ΔHL(T) were set to zero and −7 kcal/mol respectively. The uncertainty in the calculated ligand binding affinity constant was estimated to be ±50%.

[3] = molecular target: unphosphorylated Mouse ERK2 protein (inactive ERK2) (Mus musculus, UniProt P63085); assay: Coupled ERK2 (cERK) assay, coupled MEK1/ERK2 IMAP; assay type: biochemical; conditions: 30 min preincubation with inactive ERK2, then activation by human MEK1; 30 μM ATP; fluorescence polarization; read-out: cERK2 IC50
Sequence of unphosphorylated Mouse ERK2 protein (inactive ERK2) (P63085 whole entry): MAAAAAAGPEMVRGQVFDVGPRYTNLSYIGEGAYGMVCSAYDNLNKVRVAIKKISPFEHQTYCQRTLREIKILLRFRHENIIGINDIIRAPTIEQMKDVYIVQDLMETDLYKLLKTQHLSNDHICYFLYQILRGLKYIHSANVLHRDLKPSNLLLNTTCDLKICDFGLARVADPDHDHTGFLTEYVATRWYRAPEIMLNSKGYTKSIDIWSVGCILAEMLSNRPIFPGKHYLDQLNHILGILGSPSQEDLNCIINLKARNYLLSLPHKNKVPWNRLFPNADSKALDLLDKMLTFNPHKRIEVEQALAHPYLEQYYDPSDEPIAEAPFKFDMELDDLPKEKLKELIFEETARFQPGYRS
Text: • 1. M. W. Pantoliana, E. C. Petrella, J. D. Kwasnoski, V. S. Lobanov, J. Myslik, E. Graf, T. Carver, E. Asel, B. A. Springer, P. Lane, F. R. Salemme, High-density miniaturized thermal shift assays as a general strategy for drug discovery, J. Biomol. Screen 6 (2001) 429-440 • 2. J. F. Brandts, L.-N. Lin, Study of strong to ultratight protein interactions using differential scanning calorimetry, Biochemistry 29 (1990) 6927-6940 • 3. Mayhood, T. W., Windsor, W. T., Ligand binding affinity determined by temperature-dependent circular dichroism: Cyclin-dependent kinase 2 inhibitors, Analytical Biochemistry 345 (2005) 187-197 Coupled ERK2 (cERK) Assay:
14 μl of kinase buffer (10 mM Tris.HCl pH 7.2, 10 mM MgCl2, 0.01% Tween-20, 1 mM DTT) containing 0.4 ng unphosphorylated Mouse ERK2 protein was added to each well of a black 384-well assay plate. […] DMSO concentration during initial incubation is 6.7%. ERK2 activity was determined to be insensitive to DMSO concentrations up to 20%. ERK2 was then activated and it's kinase activity measured by the addition of 10 μl kinase buffer with the following components (final concentration per reaction): 2 ng active (phosphorylated) human MEK1 protein and 4 μM (total) ERK2 IMAP substrate peptides (3.9 μM unlabeled IPTTPITTTYFFFK-CONH2 and 100 nM IPTTPITTTYFFFK(5-carboxyfluorescein)-CONH2) and 30 μM ATP. DMSO concentration during ERK activation was 4%. After one hour, reactions were terminated by addition of 60 μl IMAP detections beads in binding buffer (Molecular Devices). Binding was allowed to equilibrate for 30 minutes before reading the plate on an LJL Analyst Fluorescence Polarization plate reader. […] Active compounds were reconfirmed in an independent assay.

Sequence of fully phosphorylated, active Mouse ERK2 protein (P63085 whole entry): as above

`O=C(Nc1ccc2[nH]nc(-c3ccncc3)c2c1)C1CCCN(C(=O)c2ccccc2)C1` (stereo not drawn) [Compound 56, 1-BENZOYL-N-[3-(4-PYRIDINYL)-1H-INDAZOL-5-YL]-3-PIPERIDINECARBOXAMIDE] showed an IC50 [1] of 0.553 µM, a Kd [2] of 0.42 µM and an IC50 [3] of 0.15 µM.

`O=C(Nc1ccc2[nH]nc(-c3ccncc3)c2c1)C1CNCC(c2ccccc2)C1` (stereo not drawn) [Compound 79, 5-PHENYL-N-[3-(4-PYRIDINYL)-1H-INDAZOL-5-YL]-3-PIPERIDINECARBOXAMIDE] gave an IC50 [1] of 0.124 µM, a Kd [2] of 0.008 µM and an IC50 [3] of 0.0694 µM.

Molecule `O=C(Nc1ccc2[nH]nc(-c3ccncc3)c2c1)C1CN(Cc2ccccc2)CCS1` (stereo not drawn) [Compound 36, 4-(PHENYLMETHYL)-N-[3-(4-PYRIDINYL)-1H-INDAZOL-5-YL]-2-THIOMORPHOLINECARBOXAMIDE] has an IC50 [1] of 1.84 µM, a Kd [2] of 0.062 µM and an IC50 [3] of 0.166 µM.

`COc1ccc(F)c(CN2CCOC(C(=O)Nc3ccc4[nH]nc(-c5ccncc5)c4c3)C2)c1` (stereo not drawn) [Compound 46, 4-[(2-FLUORO-5-METHOXYPHENYL)METHYL]-N-[3-(4-PYRIDINYL)-1H-INDAZOL-5-YL]-2-MORPHOLINECARBOXAMIDE] gave an IC50 [1] of 0.148 µM, a Kd [2] of 0.167 µM and an IC50 [3] of 0.148 µM.

Molecule `O=C(Nc1ccc2[nH]nc(-c3ccncc3)c2c1)C1CN(Cc2ccccc2F)CCS1(=O)=O` (stereo not drawn) [Compound 70, 4-[(2-FLUOROPHENYL)METHYL]-N-[3-(4-PYRIDINYL)-1H-INDAZOL-5-YL]-2-THIOMORPHOLINECARBOXAMIDE, 1,1-DIOXIDE] has an IC50 [1] of 0.0139 µM, a Kd [2] of 0.012 µM and an IC50 [3] of 0.0177 µM.

With `CSC1(C(=O)Nc2ccc3[nH]nc(-c4ccncc4)c3c2)CCN(Cc2ccccc2F)C1` (stereo not drawn) [Compound 63, 1-[(2-FLUOROPHENYL)METHYL]-3-(METHYLTHIO)-N-[3-(4-PYRIDINYL)-1H-INDAZOL-5-YL]-3-PYRROLIDINECARBOXAMIDE] the IC50 [1] was 0.211 µM, the Kd [2] was 0.0135 µM and the IC50 [3] was 0.121 µM.

With `O=C(Nc1ccc2[nH]nc(-c3ccncc3)c2c1)C1CN(Cc2cscn2)CCO1` (stereo not drawn) [Compound 2, N-[3-(4-PYRIDINYL)-1H-INDAZOL-5-YL]-4-(4-THIAZOLYLMETHYL)-2-MORPHOLINECARBOXAMIDE] the IC50 [1] was 0.583 µM, the Kd [2] was 0.546 µM and the IC50 [3] was 1.84 µM.

Molecule `O=C(Nc1ccc2[nH]nc(-c3ccncc3)c2c1)[C@H]1CN(Cc2ccccc2F)CCS1` [Compound 61, 4-[(2-FLUOROPHENYL)METHYL]-N-[3-(4-PYRIDINYL)-1H-INDAZOL-5-YL]-2(R)-THIOMORPHOLINECARBOXAMIDE] has an IC50 [1] of 0.0081 µM, a Kd [2] of 0.005 µM and an IC50 [3] of 0.0199 µM.

For `O=C(Nc1ccc2[nH]nc(-c3ccncc3)c2c1)C1CN(C(=O)OCc2ccccc2)CCN1` (stereo not drawn) [Compound 58, PHENYLMETHYL 3-[[[3-(4-PYRIDINYL)-1H-INDAZOL-5-YL]AMINO]CARBONYL]-1-PIPERAZINECARBOXYLATE], the IC50 [1] was 2.2 µM, the Kd [2] was 0.602 µM and the IC50 [3] was 0.96 µM.

`O=C(Nc1ccc2[nH]nc(-c3ccncc3)c2c1)C1CN(Cc2ccccc2F)CC[S+]1[O-]` (stereo not drawn) [Compound 69, 4-[(2-FLUOROPHENYL)METHYL]-N-[3-(4-PYRIDINYL)-1H-INDAZOL-5-YL]-2-THIOMORPHOLINECARBOXAMIDE, 1-OXIDE] showed an IC50 [1] of 0.0027 µM, a Kd [2] of 0.0044 µM and an IC50 [3] of 0.0083 µM.

Molecule `O=C(Nc1ccc2[nH]nc(-c3ccncc3)c2c1)[C@@H]1CN(Cc2ccccc2F)CCS1` [Compound 60, 4-[(2-FLUOROPHENYL)METHYL]-N-[3-(4-PYRIDINYL)-1H-INDAZOL-5-YL]-2(S)-THIOMORPHOLINECARBOXAMIDE] has an IC50 [1] of 0.175 µM, a Kd [2] of 0.006 µM and an IC50 [3] of 0.0723 µM.

With `O=C(Nc1ccc2[nH]nc(-c3ccncc3)c2c1)C1CN(Cc2cccnc2)CCO1` (stereo not drawn) [Compound 19, N-[3-(4-PYRIDINYL)-1H-INDAZOL-5-YL]-4-(3-PYRIDINYLMETHYL)-2-MORPHOLINECARBOXAMIDE] the IC50 [1] was 17 µM, the Kd [2] was 0.517 µM and the IC50 [3] was 2.2 µM.

With `O=C(Nc1ccc2[nH]nc(-c3ccncc3)c2c1)C1CN(Cc2cccc(F)c2F)CCO1` (stereo not drawn) [Compound 43, 4-[(2,3-DIFLUOROPHENYL)METHYL]-N-[3-(4-PYRIDINYL)-1H-INDAZOL-5-YL]-2-MORPHOLINECARBOXAMIDE] the IC50 [1] was 0.139 µM, the Kd [2] was 0.214 µM and the IC50 [3] was 0.218 µM.

Molecule `Cc1nc(CN2CCSC(C(=O)Nc3ccc4[nH]nc(-c5ccncc5)c4c3)C2)cs1` (stereo not drawn) [Compound 11, 4-[(2-METHYL-4-THIAZOLYL)METHYL]-N-[3-(4-PYRIDINYL)-1H-INDAZOL-5-YL]-2-THIOMORPHOLINECARBOXAMIDE] has an IC50 [1] of 0.475 µM, a Kd [2] of 0.616 µM and an IC50 [3] of 0.84 µM.

`Cc1nc(CN2CCOC(C(=O)Nc3ccc4[nH]nc(-c5ccncc5)c4c3)C2)cs1` (stereo not drawn) [Compound 18, 4-[(2-METHYL-4-THIAZOLYL)METHYL]-N-[3-(4-PYRIDINYL)-1H-INDAZOL-5-YL]-2-MORPHOLINECARBOXAMIDE] showed an IC50 [1] of 18.1 µM, a Kd [2] of 0.571 µM and an IC50 [3] of 1.17 µM.

In the case of `O=C(Nc1ccc2[nH]nc(-c3ccncc3)c2c1)C1CN(Cc2ccc(F)cc2F)CCO1` (stereo not drawn) [Compound 45, 4-[(2,4-DIFLUOROPHENYL)METHYL]-N-[3-(4-PYRIDINYL)-1H-INDAZOL-5-YL]-2-MORPHOLINECARBOXAMIDE], the IC50 [1] is reported as 0.138 µM, the Kd [2] is reported as 0.08 µM and the IC50 [3] is reported as 0.275 µM.

`O=C(Nc1ccc2[nH]nc(-c3ccncc3)c2c1)C1CN(Cc2c(F)ccc(F)c2Cl)CCO1` (stereo not drawn) [Compound 48, 4-[(2-CHLORO-3,6-DIFLUOROPHENYL)METHYL]-N-[3-(4-PYRIDINYL)-1H-INDAZOL-5-YL]-2-MORPHOLINECARBOXAMIDE] showed an IC50 [1] of 0.371 µM, a Kd [2] of 0.202 µM and an IC50 [3] of 0.909 µM.

In the case of `O=C(Nc1ccc2[nH]nc(-c3ccncc3)c2c1)[C@@H]1CN(Cc2ccccc2)CCN1` [Compound 57, 4-(PHENYLMETHYL)-N-[3-(4-PYRIDINYL)-1H-INDAZOL-5-YL]-2(S)-PIPERAZINECARBOXAMIDE], the IC50 [1] is reported as 0.052 µM, the Kd [2] is reported as 0.049 µM and the IC50 [3] is reported as 0.0618 µM.

Molecule `O=C(Nc1ccc2[nH]nc(-c3ccncc3)c2c1)C1CCN(Cc2ccccc2)C1` (stereo not drawn) [Compound 64, 1-(PHENYLMETHYL)-N-[3-(4-PYRIDINYL)-1H-INDAZOL-5-YL]-3-PYRROLIDINECARBOXAMIDE] has an IC50 [1] of 0.245 µM, a Kd [2] of 0.0356 µM and an IC50 [3] of 0.171 µM.

Work on `O=C(Nc1ccc2[nH]nc(-c3ccncc3)c2c1)C1CNCCS1` (stereo not drawn) [Compound 17, N-[3-(4-PYRIDINYL)-1H-INDAZOL-5-YL]-2-THIOMORPHOLINECARBOXAMIDE] yielded an IC50 [1] of 0.124 µM, a Kd [2] of 5.63 µM and an IC50 [3] of 0.109 µM.
